{"source": "patent US8158165B2", "about": "“Preventative treatment and remission of allergic diseases” (CSIR, priority 2006, dated 2012)", "key": {"Lipoxygenase 5-LO": {"tested_on": "Lipoxygenase 5-LO", "assay": "5-lipoxygenase enzyme assay (5-LO)", "assay_type": "biochemical, human", "conditions": "100 μg/ml", "protocol": "For the 5-LO test a crude 5-lipoxygenase enzyme preparation from rat basophilic leukemia cells (RBL-1) is used. The test compound is pre-incubated with the enzyme for 5 minutes in Tris buffer pH 7.2 at room temperature. The reaction is initiated by addition of 15 μM arachidonic acid as substrate and run for an additional 8 minutes after which the reaction is terminated by addition of 70 mM citric acid and levels of 5-HETE are determined by radioimmune assay. […] NDGA (nordihydroguaretic acid) is used as standard reference agent."}, "Phosphodiesterase PDE4": {"tested_on": "Phosphodiesterase PDE4", "assay": "phosphodiesterase PDE4 enzyme assay", "assay_type": "biochemical, human", "conditions": "100 μg/ml", "protocol": "Based on the results shown in Table 6, it follows that the combined fraction (WG-I-5AB+WG-I-5C) is effective in binding to the glucocorticoid receptor (GR) site. […] This inhibitory effect implies that the combined fraction (WG-I-5AB+WG-I-5C) has a bronchodilatory effect. For the PDE4 test, PDE4 which has been partially purified from human U-937 pronocytic cells is used. The test compound and/or vehicle is incubated with 0.2 μg enzyme and 1 μM cAMP containing 0.01 μM [^3H]cAMP in Tris buffer pH 7.5 for 20 minutes at 30° C. The reaction is terminated by boiling for 2 minutes and the resulting AMP is converted to adenosine by addition of 10 mg/ml snake venom necleotidase and further incubation at 30° C. for 10 minutes. Unhydrolyzed cAMP is bound to AGI-X2 resin, and remaining [^3H]adenosine in the aqueous phase is quantified by scintillation counting. Compounds are screened at 100 μM. IBMX (3-isobutyl-1-methylxanthine) is used as standard reference agent."}, "[1]": {"tested_on": "Human T lymphocytic Jurkat cells", "assay": "Cytotoxicity, Transcription Response NF-κB", "assay_type": "cell-based", "protocol": "Human T lymphocytic Jurkat cells, transfected with a response element-lacZ reporter in which transcription of the β-galactosidase gene is directed by the binding site for the NF-κB transcription factor, are used. Test compound and/or vehicle are incubated with the cells (1.5×10^6/ml) in the presence of 0.5 μM A23187 and 50 ng/ml PMA (phorbol 12-myristate 13-acetate) in RPMI-1640 pH 7.4 at 37° C. for 4 hours. Test compound-induced β-galactosidase activity is determined by the conversion of FDG (fluorescein di-β-D-galactopyranoside) to fluorescein. Fluorescence intensity is read on SpectroFluor Plus plate reader. […] […] These same concentrations are concurrently applied to a separate group of treated cells and evaluated for possible compound-induced cytotoxicity only if significant stimulation or inhibition is observed (Cat. #361100)."}, "IL-5": {"tested_on": "IL-5", "assay": "Mediator Release, IL-5 (ConA-stimulated PBMNL cells)", "assay_type": "cell-based, human", "protocol": "As regards the human IL-5 mediator release text, the test compound is incubated with Concanavalin A (ConA) (10 μg/ml)-stimulated human peripheral blood mononuclear leukocyte (PBMNL) cells in growth medium RPMI-1640 (pH 7.4) overnight at 37° C. in an incubator. The IL-5 cytokine production levels in the conditioned medium are quantified using a sandwich ELISA kit. […] These same concentrations are concurrently applied to a separate group of treated cells and evaluated for possible compound-induced cytotoxicity only if significant inhibition of release is observed. Dexamethasone is used as standard reference agent."}, "[2]": {"molecular_target": "T1, human glucocorticoid receptors (Homo sapiens, UniProt P04150)", "T1 construct": "endogenous in cells; host or cells: HeLa S3 (human cervix carcinoma) cells", "T1 sequence (P04150 1-777)": "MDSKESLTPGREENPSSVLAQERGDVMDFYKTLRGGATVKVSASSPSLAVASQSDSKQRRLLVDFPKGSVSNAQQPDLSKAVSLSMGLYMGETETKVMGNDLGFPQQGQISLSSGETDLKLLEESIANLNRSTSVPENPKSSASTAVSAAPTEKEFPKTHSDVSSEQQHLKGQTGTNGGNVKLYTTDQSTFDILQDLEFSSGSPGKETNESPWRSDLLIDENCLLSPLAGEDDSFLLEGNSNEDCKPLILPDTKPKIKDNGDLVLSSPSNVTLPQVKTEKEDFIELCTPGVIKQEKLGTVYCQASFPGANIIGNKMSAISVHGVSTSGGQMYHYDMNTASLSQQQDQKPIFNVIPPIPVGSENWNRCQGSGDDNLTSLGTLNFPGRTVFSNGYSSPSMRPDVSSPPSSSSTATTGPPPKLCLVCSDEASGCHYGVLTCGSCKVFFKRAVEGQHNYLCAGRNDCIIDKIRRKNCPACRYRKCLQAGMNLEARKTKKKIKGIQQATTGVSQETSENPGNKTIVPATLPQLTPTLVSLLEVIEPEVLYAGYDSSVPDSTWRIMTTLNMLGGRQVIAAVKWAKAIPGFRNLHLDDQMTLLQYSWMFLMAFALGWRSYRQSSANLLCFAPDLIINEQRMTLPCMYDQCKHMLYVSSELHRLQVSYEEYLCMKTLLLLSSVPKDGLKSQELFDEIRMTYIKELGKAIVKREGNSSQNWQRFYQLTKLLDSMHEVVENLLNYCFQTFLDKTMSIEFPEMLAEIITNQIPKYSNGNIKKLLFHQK", "assay": "glucocorticoid receptor (GR) binding assay, [3H]Dexamethasone, HeLa S3 cells", "text": "Biochemical assay results as presented herein are reflected as the percent inhibition of specific binding or activity of a compound. The assay is described in Cidlowski, J. A. and Cidlowski, N. B., Regulation of glucocorticoid receptors by glucocorticoids in cultured HeLa S3 cells. Endocrinology 109: 1975-1982, 1981, the contents of which are incorporated herein by way of reference. This assay specifically measures the ability of active glucocorticoids in glucocorticoid receptor downregulation.\nThis assay measures binding of [^3H]Dexamethasone to human glucocorticoid receptors. HeLa S3 cells are suspended in modified HEPES buffer, pH 7.2, using standard techniques.\nThe cells (1×10^6) are incubated with 6 nM [^3H]Dexamethasone for 120 minutes at 25° C. Non-specific binding is estimated in the presence of 20 μM Dexamethasone. Membranes are filtered and washed three times and the filters are counted to determine [^3H]Dexamethasone specifically bound. Compounds are screened at 10 μM for activity."}}}
{"smiles": "Cc1coc2c1C[C@H]1[C@H](C)C=CC(=O)[C@]1(C)C2", "note": "(relative stereo) [compound 1, 4,4a,5,9-tetrahydro-3,5,8a-trimethylnaptho[2,3-b]furan-8-one]", "values": [{"measurement": "Inhibition (%) Lipoxygenase 5-LO", "setting": "Lipoxygenase 5-LO", "value": 99, "unit": "%"}, {"measurement": "Inhibition (%) Phosphodiesterase PDE4", "setting": "Phosphodiesterase PDE4", "value": 35, "unit": "%"}, {"measurement": "% RESPONSE Ant, Cytotoxicity, Transcription Response NF-κB", "setting": "[1]; 0.1 μM", "value": 6, "unit": "%"}, {"measurement": "% RESPONSE Ant, Cytotoxicity, Transcription Response NF-κB", "setting": "[1]; 1 μM", "value": 2, "unit": "%"}, {"measurement": "% RESPONSE Ant, Cytotoxicity, Transcription Response NF-κB", "setting": "[1]; 10 μM", "value": 2, "unit": "%"}, {"measurement": "% RESPONSE Ant, Cytotoxicity, Transcription Response NF-κB", "setting": "[1]; 10 μM, fifth (last) step of the series", "value": 1, "unit": "%"}, {"measurement": "% RESPONSE Ant, Cytotoxicity, Transcription Response NF-κB", "setting": "[1]; 100 μM", "value": "−3", "unit": "%"}, {"measurement": "% RESPONSE Ant, Cytotoxicity, Transcription Response NF-κB", "setting": "[1]; 100 μM, listed as compound of formula 1", "value": "no apparent cytotoxicity"}, {"measurement": "ANT. Mediator Release, IL-5", "setting": "IL-5; 10 nM", "value": 17, "unit": "%"}, {"measurement": "ANT. Mediator Release, IL-5", "setting": "IL-5; 0.1 μM", "value": 18, "unit": "%"}, {"measurement": "ANT. Mediator Release, IL-5", "setting": "IL-5; 1 μM", "value": 25, "unit": "%"}, {"measurement": "ANT. Mediator Release, IL-5", "setting": "IL-5; 10 μM", "value": 36, "unit": "%"}, {"measurement": "ANT. Mediator Release, IL-5", "setting": "IL-5; 100 μM", "value": 93, "unit": "%"}, {"measurement": "ANT. Mediator Release, IL-5", "setting": "IL-5; 100 μg/ml (Table 13)", "value": 93, "unit": "%"}, {"measurement": "EC50", "setting": "IL-5; Homo sapiens", "value": 16.1, "unit": "µM"}, {"measurement": "IC50", "setting": "IL-5; Homo sapiens, as worded, read-out: IC50 mediator release Interleukin-5 (IL-5) inhibition assay", "value": 16.1, "unit": "µM"}, {"measurement": "IC50", "setting": "[2]", "value": 50.3, "unit": "µM"}, {"measurement": "Ki", "setting": "[2]", "value": 22.8, "unit": "µM"}, {"measurement": "inhibition at 100 µM", "setting": "[2]; 100 μM", "value": 70, "unit": "%"}, {"measurement": "inhibition at 100 µg/mL", "setting": "[2]; 100 μg/ml", "value": 104, "unit": "%"}, {"measurement": "nH Glucocorticoid", "setting": "[2]; Hill coefficient", "value": 1.4}]}
